Laboratory results taken from ChEMBL document CHEMBL1201862, “PubChem BioAssay data set” (2004).
“And” between values parts separate entries of the source, which are not always exact repeats. Equal entries are not always repeated. The source made the active and inactive calls.

Columns and labels:
[1] = inhibitors of intracellular T. cruzi replication, confirmation, NIH3T3 host cells, beta-gal luminescence (AID 2044); assay type: functional, cell-based;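 also: intracellular parasites grown in NIH/3T3 mouse fibroblasts as host cells; luminescent beta-galactosidase reporter signal from transgenic T. cruzi replicating inside host cells; inhibitors lower the luminescence signal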
[2] = cytotoxicity toward NIH3T3 fibroblasts, dose response, counter-screen, cell-based, ATP luminescence, mouse fibroblasts (AID 2010); assay type: functional;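 also: cells exposed to compound for about 90 hours before reading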
Cytochrome P450 2C9 = Cytochrome P450 2C9 (Homo sapiens, UniProt P11712)
Cytochrome P450 3A4 = Cytochrome P450 3A4 (Homo sapiens, UniProt P08684);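 also: CYP3A4 tested as one member of a cytochrome P450 panel screen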
Cytochrome P450 2D6 = Cytochrome P450 2D6 (Homo sapiens, UniProt P10635);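 also: CYP2D6 member of a cytochrome P450 panel assay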
Cytochrome P450 1A2 = biological target: T1, Cytochrome P450 1A2 (Homo sapiens, UniProt P05177);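 also: PubChem cytochrome P450 panel assay, CYP1A2 panel member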
T1 sequence (P05177 whole entry): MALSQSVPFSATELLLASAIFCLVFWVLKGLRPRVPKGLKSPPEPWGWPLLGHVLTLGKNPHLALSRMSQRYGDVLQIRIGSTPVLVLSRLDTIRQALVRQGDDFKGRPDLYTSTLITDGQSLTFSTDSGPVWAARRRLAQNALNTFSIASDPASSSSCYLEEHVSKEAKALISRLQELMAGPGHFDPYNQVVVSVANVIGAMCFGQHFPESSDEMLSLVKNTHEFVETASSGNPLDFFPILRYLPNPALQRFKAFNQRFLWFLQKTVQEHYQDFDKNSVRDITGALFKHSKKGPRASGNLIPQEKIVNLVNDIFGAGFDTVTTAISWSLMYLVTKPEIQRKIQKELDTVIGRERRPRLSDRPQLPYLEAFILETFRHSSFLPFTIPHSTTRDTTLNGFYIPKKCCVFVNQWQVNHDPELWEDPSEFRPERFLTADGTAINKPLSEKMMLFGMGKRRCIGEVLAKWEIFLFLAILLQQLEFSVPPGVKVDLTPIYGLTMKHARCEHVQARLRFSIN

[3] = biological target: T2, Corticotropin-releasing factor receptor 2/Corticotropin-releasing factor-binding protein (Homo sapiens, UniProt P24387+Q13324); experiment: activators of CRF receptor 2 with binding protein – uHTS hits, confirmation (AID 602473); assay type: functional; details: read-out: EC50_Mean
T2 sequence (Q13324 whole entry): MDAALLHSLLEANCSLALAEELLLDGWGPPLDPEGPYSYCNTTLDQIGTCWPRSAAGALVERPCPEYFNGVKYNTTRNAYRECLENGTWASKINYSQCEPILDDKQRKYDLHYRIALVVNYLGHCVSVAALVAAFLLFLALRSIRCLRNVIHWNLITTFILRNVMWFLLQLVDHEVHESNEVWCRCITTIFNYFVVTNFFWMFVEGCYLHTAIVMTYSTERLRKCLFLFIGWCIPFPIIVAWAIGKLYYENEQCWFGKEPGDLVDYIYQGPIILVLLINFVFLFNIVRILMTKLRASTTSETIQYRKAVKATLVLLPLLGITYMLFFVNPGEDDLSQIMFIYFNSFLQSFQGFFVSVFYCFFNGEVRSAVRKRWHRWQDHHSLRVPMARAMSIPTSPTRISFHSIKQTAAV
T2 sequence (P24387 whole entry): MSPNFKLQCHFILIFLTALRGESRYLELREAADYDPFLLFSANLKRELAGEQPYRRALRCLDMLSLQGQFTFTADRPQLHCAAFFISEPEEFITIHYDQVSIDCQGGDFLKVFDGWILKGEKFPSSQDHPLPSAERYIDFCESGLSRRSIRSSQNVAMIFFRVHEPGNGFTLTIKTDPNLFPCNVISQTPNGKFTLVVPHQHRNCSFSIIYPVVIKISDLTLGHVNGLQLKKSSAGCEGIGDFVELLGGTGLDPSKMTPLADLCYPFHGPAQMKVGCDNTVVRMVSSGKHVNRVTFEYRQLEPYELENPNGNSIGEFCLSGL

[4] = test system: Streptococcus sp. 'group A'; experiment: growth inhibition of control SK(-) GAS strain, dose response, counter-screen for streptokinase expression inhibitor project, luminescence, kanamycin, BacTiterGlo, confirmation (AID 1900); assay type: functional, organism-based
Streptococcus = experiment: Group A Streptococcus viability loss, dose response, counter-screen for streptokinase expression inhibitor project, luminescence, BacTiterGlo (AID 1915); assay type: functional, organism-based;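 also: potency for reduction of bacterial viability or growth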

Cytochrome P450 2D6, sequence (P10635 whole entry): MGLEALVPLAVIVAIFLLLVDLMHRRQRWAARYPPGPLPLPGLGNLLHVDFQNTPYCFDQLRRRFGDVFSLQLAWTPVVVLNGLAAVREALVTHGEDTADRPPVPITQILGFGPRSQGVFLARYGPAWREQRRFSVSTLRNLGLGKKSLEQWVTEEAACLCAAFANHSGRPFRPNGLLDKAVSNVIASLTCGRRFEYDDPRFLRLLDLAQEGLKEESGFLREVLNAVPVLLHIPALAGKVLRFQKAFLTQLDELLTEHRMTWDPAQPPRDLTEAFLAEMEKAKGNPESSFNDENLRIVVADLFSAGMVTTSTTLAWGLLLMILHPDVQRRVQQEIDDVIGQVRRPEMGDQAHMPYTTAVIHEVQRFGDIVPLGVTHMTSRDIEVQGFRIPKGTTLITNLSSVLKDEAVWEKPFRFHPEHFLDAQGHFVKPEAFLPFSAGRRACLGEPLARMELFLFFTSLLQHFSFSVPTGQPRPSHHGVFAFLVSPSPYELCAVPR
Cytochrome P450 2C9, sequence (P11712 whole entry): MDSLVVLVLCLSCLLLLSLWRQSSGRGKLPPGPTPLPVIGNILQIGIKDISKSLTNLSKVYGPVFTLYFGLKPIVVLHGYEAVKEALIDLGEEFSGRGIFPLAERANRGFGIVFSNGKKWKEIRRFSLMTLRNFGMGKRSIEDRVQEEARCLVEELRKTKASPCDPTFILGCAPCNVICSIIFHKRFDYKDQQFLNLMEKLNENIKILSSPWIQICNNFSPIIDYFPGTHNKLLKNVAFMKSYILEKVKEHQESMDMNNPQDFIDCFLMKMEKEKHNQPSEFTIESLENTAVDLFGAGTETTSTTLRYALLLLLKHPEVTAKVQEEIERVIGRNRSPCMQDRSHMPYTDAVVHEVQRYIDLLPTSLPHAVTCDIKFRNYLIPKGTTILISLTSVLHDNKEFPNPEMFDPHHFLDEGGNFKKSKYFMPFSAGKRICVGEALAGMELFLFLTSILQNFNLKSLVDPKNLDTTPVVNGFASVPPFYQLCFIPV
Cytochrome P450 3A4, sequence (P08684 whole entry): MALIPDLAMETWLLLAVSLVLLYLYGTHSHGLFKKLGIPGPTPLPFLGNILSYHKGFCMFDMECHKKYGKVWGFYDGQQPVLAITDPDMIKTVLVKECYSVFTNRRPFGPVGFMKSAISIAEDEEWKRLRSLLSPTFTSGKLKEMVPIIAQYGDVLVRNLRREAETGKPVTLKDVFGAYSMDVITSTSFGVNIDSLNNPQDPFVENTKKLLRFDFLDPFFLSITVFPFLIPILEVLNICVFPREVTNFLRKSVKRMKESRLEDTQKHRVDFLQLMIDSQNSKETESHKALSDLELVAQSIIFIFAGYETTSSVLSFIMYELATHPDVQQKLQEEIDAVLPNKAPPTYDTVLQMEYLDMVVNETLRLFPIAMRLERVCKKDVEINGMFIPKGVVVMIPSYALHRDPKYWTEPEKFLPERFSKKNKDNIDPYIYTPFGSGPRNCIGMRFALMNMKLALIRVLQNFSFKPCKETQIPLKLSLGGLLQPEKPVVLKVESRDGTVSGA

Cc1nn(-c2ccccc2)c(N2CCCC2)c1/C=N/NC(=O)c1cc(-c2ccccc2)nc2ccccc12
EC50 [1]: 1.96 µM (active)
EC50 [2]: > 60 µM (not active)

CCCn1c(=O)c2[nH]c(C3CCCC3)nc2n(CCCOC(=O)c2ccc(S(=O)(=O)F)cc2)c1=O
AC50 (Cytochrome P450 2C9): 3.16 µM (inconclusive)
AC50 (Cytochrome P450 3A4): 3.16 µM (inconclusive)

CC(C(=O)Nc1ccccc1Sc1ccccc1)N(c1ccccc1)S(C)(=O)=O (stereo not drawn)
AC50 (Cytochrome P450 2D6): 25.1 µM (inconclusive)

CCOC(=O)CN(C(=O)CCC(=O)Nc1cc(C)on1)C(C(=O)NC1CCCC1)c1cccnc1 (stereo not drawn)
AC50 (Cytochrome P450 2C9): 17.8 µM (inconclusive)

COc1cccc(CNc2ccc(F)c(Cl)c2)c1O
AC50 (Cytochrome P450 3A4): 35.5 µM (inconclusive)

CCCCn1c(SCc2c(C)noc2C)nc2cc(S(N)(=O)=O)ccc21
AC50 (Cytochrome P450 1A2): 6.31 µM (inconclusive)

C=CCc1cccc(C2Nc3ccccc3C(=O)N2O)c1O (stereo not drawn)
AC50 (Cytochrome P450 2D6): 0.355 µM (inconclusive)

O=C(O)c1ccccc1C1c2ccccc2Oc2ccccc21
AC50 (Cytochrome P450 2C9): 3.98 µM (inconclusive)

C[C@@H]1C[C@H](C)CN(S(=O)(=O)c2cc(Cl)c(Oc3ccc([N+](=O)[O-])cc3Cl)c(Cl)c2)C1
AC50 (Cytochrome P450 2C9): 6.31 µM (inconclusive)

NCCNS(=O)(=O)c1cccc2cnccc12
AC50 (Cytochrome P450 3A4): 20 µM (inconclusive) and 39.8 µM (inconclusive)
AC50 (Cytochrome P450 2D6): 7.94 µM (inconclusive) and 25.1 µM (inconclusive)

O=C(Nc1ncc(Cc2ccccc2Cl)s1)c1ccc(-c2cccc([N+](=O)[O-])c2)o1
EC50 [1]: 1.57 µM (active)
EC50 [2]: > 60 µM (inconclusive)

Clc1ccc(-c2noc(CN3CCCCC3)n2)cc1
AC50 (Cytochrome P450 2D6): 3.16 µM (inconclusive)

Cc1nn(Cc2ccc(Cl)cc2)c(C)c1NC(=O)Cn1nc([N+](=O)[O-])c(Cl)c1C
AC50 (Cytochrome P450 3A4): 1.12 µM (inconclusive)

Cc1ccc(NC(=O)C2CCN(c3cnccn3)CC2)cc1C
EC50 [1]: 1.55 µM (active)
EC50 [2]: > 60 µM (not active)

Cc1ccc(-n2nnnc2SCC(=O)c2cc(C)n(CC3CCCO3)c2C)cc1 (stereo not drawn)
EC50 [1]: 0.479 µM (active)
EC50 [2]: > 30 µM (not active)

CCc1ccccc1NC(=O)C(C)n1nc([N+](=O)[O-])c(Br)c1C (stereo not drawn)
AC50 (Cytochrome P450 1A2): 28.2 µM (inconclusive)

COc1ccc(-c2nc3cnc(N4CCOCC4)nc3n(Cc3cccs3)c2=O)cc1
AC50 (Cytochrome P450 1A2): 2.51 µM (inconclusive)

CCCCCn1/c(=N/C(=O)c2cccnc2)c(C#N)cc2c(=O)n3cccc(C)c3nc21
EC50 [3]: > 53 µM (inactive)

CCO[C@@H]1OC(C(=O)N2CCN(Cc3ccc4c(c3)OCO4)CC2)=C[C@H](C2CCCCC2)[C@H]1CCCO
EC50 [1]: 1.01 µM (active)
EC50 [2]: > 60 µM (not active)

Clc1ccccc1-c1ccc2ncnc(NC3CCNCC3)c2c1
AC50 (Cytochrome P450 1A2): 15.8 µM (inconclusive)
AC50 (Cytochrome P450 2D6): 20 µM (inconclusive)

c1ccc([C@@H]2CN3CCSC3=N2)cc1 [DEXAMISOLE]
AC50 (Cytochrome P450 2D6): 31.6 µM (inconclusive) and 10 µM (inconclusive) and 20 µM (inconclusive)

O=C(NC(N1CCOCC1)C(Cl)(Cl)Cl)c1cc([N+](=O)[O-])cc([N+](=O)[O-])c1 (stereo not drawn)
EC50 [1]: 0.9 µM (active)
EC50 [2]: > 60 µM (not active)

CCCN1CN=C(S)N(c2cccc(C)c2C)C1
AC50 (Cytochrome P450 3A4): 15.8 µM (inconclusive)

CCCC(=O)Nc1ccc(C(=O)NNC(=S)NC(=O)c2cccs2)cc1
AC50 (Cytochrome P450 2D6): 39.8 µM (inconclusive)

CCN1CCN(c2cc(C)c3cc(NC(=O)Cc4ccccc4OC)ccc3n2)CC1
EC50 [1]: 1.14 µM (active)
EC50 [2]: > 60 µM (not active)

O=C(Oc1ccccc1)N1CCC2(CCCN(C(c3ccccc3)c3ccccc3)C2)CC1
AC50 (Cytochrome P450 2C9): 2 µM (inconclusive)

Cn1c(C(=O)O)c(CC(=O)NCc2cccnc2)c2ccccc21
AC50 (Cytochrome P450 1A2): 10 µM (inconclusive)

COc1ccc2[nH]c(C)c(CCN(Cc3cccs3)C(S)=Nc3ccccc3OC)c2c1
EC50 [1]: 2.08 µM (active)
EC50 [2]: > 60 µM (not active)

CCOC(=O)c1cc2c(=O)n3ccccc3nc2n(C(C)C)/c1=N/C(=O)c1c(-c2c(F)cccc2Cl)noc1C
EC50 [1]: 2.18 µM (active)
EC50 [2]: > 60 µM (inconclusive)

CC(=O)OCCNC(=O)c1cccnc1
AC50 (Cytochrome P450 3A4): 20 µM (inconclusive)
AC50 (Cytochrome P450 1A2): 31.6 µM (inconclusive)

CCC(=O)NCc1c(Cl)cccc1-n1cccc1
AC50 (Cytochrome P450 2C9): 15.8 µM (inconclusive)
AC50 (Cytochrome P450 3A4): 25.1 µM (inconclusive)
AC50 (Cytochrome P450 2D6): 15.8 µM (inconclusive)

CN(Cc1ccco1)c1ncnc2ccc(-c3ccccc3Cl)cc12
AC50 (Cytochrome P450 2C9): 1.58 µM (inconclusive)

c1ccc2c([C@@H]3CCN(CCN4CCOCC4)C3)c[nH]c2c1
AC50 (Cytochrome P450 2D6): 3.98 µM (inconclusive)

Cc1nc(O)c2nsc(C(=O)Nc3ccc(N4CCCC(O)C4)cc3)c2n1 (stereo not drawn)
EC50 [4]: 3.32 µM (active)
EC50 (Streptococcus): > 150 µM (not active)

Cc1cc(COC(=O)C2N3C(=O)[C@@H](NC(=O)COc4ccccc4)[C@H]3SC2(C)C)on1 (stereo partly drawn)
EC50 [4]: 0.175 µM (active)
EC50 (Streptococcus): 0.384 µM (active)

O=c1onc(-c2cccs2)n1Cc1ccccc1
AC50 (Cytochrome P450 2C9): 31.6 µM (inconclusive)

C#CCCCC(=O)Nc1ccccc1
AC50 (Cytochrome P450 3A4): 25.1 µM (inconclusive)
AC50 (Cytochrome P450 1A2): 20 µM (inconclusive)

CCn1cc(CN2CCCC(C(=O)c3ccc(-c4ccccc4)c(F)c3)C2)cn1 (stereo not drawn)
EC50 [1]: 0.569 µM (active)
EC50 [2]: > 60 µM (not active)

Nc1nc(Nc2ccccc2)nc2c1ncn2[C@@H]1O[C@@H](CO)[C@H](O)[C@@H]1O
AC50 (Cytochrome P450 1A2): 31.6 µM (inconclusive)

CN(C)c1nc2c(c(=O)[nH]c(=O)n2C)n1Cc1ccccc1Br
AC50 (Cytochrome P450 2C9): 0.0708 µM (inconclusive)
AC50 (Cytochrome P450 1A2): 28.2 µM (inconclusive)
AC50 (Cytochrome P450 2D6): 25.1 µM (inconclusive)

Nc1nonc1-c1nc2ccccc2n1CC(=O)N/N=C\c1ccc(-c2ccc(Cl)cc2)o1
EC50 [4]: 1.02 µM (active)
EC50 (Streptococcus): 2.38 µM (active)

CCCCC[C@H](O)c1cccc(OCc2ccc3ccccc3n2)c1
AC50 (Cytochrome P450 2C9): 31.6 µM (inconclusive)

CC(C)COP(=O)(OCC(C)C)C(O)c1ccccc1F (stereo not drawn)
AC50 (Cytochrome P450 3A4): 3.98 µM (inconclusive)

CCNc1ncc2nc(-c3cc(F)cc(F)c3)c(=O)n(CCC#N)c2n1
AC50 (Cytochrome P450 1A2): 0.794 µM (inconclusive)

O=C(CSc1nnc(Cc2cc(O)nc(O)n2)n1-c1ccccc1)N1CCCc2ccccc21
AC50 (Cytochrome P450 3A4): 15.8 µM (inconclusive)

COC(=O)c1cc(NC(=O)CC2NC3CCCCC3NC2=O)cc(C(=O)OC)c1 (stereo not drawn)
AC50 (Cytochrome P450 2C9): 12.6 µM (inconclusive)

CC(C)CCc1noc(CN(C)CC2CCN(Cc3ccccc3)CC2)n1
EC50 [1]: 1.47 µM (active)
EC50 [2]: > 60 µM (not active)

CCCc1c(O)c2ccccc2n(-c2ccccc2)c1=O
AC50 (Cytochrome P450 2C9): 12.6 µM (inconclusive)
AC50 (Cytochrome P450 3A4): 22.4 µM (inconclusive)

CCOc1ccc(-n2c(SCC(=O)Nc3ccc(OC)cc3OC)nc3c(c2=O)SCC3)cc1
AC50 (Cytochrome P450 3A4): 15.8 µM (inconclusive)

CCCCCCCCCn1cc(C(C)=O)c(=O)[nH]c1=O
AC50 (Cytochrome P450 1A2): 14.1 µM (inconclusive)

Cc1cnc(CNc2nc(-c3ccc(N(C)C)cc3)nc3ccccc23)cn1
AC50 (Cytochrome P450 2D6): 39.8 µM (inconclusive)

O=[N+]([O-])c1cc(Cc2cc([N+](=O)[O-])c3cccnc3c2O)c(O)c2ncccc12
AC50 (Cytochrome P450 2C9): 5.01 µM (inconclusive)
AC50 (Cytochrome P450 2D6): 3.98 µM (inconclusive)

COc1ccc2[nH]cc(CCNc3ccnc(-c4ccccc4C)n3)c2c1
AC50 (Cytochrome P450 2C9): 1.26 µM (inconclusive)

COC(=O)[C@@]1(Cc2ccc(OC)cc2)[C@H]2c3cc(C(=O)N(C)C)n(CCc4ccc(OC)c(Br)c4)c3C[C@H]2CN1C(=O)c1ccccc1
AC50 (Cytochrome P450 2D6): 0.0501 µM (inconclusive)

Cc1cccc(C(CC(=O)N2CCCC2)c2ccccc2)c1O (stereo not drawn)
AC50 (Cytochrome P450 1A2): 15.8 µM (inconclusive)

CO/C(O)=C1\C(C)=NC(C)=C([N+](=O)[O-])[C@@H]1c1ccccc1C(F)(F)F
AC50 (Cytochrome P450 1A2): 39.8 µM (inconclusive)

O=C(OC(c1ccccc1)c1nccc2ccccc12)c1cc([N+](=O)[O-])cc([N+](=O)[O-])c1 (stereo not drawn)
EC50 [1]: 1.01 µM (active)
EC50 [2]: > 60 µM (not active)
